Converted amounts (≈) assume the structure as drawn. The source made the active and inactive calls. The rule behind the calls is not given here.
Key:
CFPAC-1 [1] = experiment: Induction of apoptosis in human CFPAC-1 cells assessed as viable cells at 1 uM incubated for 24 hrs by annexin V-FITC/PI staining based flow cytometry (reference value: 93.5 %); format: functional; conditions: read-out: Activity
MIA PaCa-2 [2] = experiment: Antiproliferative activity against human MIA PaCa-2 cells assessed as inhibition of cell proliferation at 1 uM incubated for 72 hrs by SRB assay relative to control; format: functional
Panc02 [3] = experiment: Antiproliferative activity against mouse Panc02 cells assessed as inhibition of cell proliferation at 1 uM incubated for 72 hrs by SRB assay relative to control; format: functional
CFPAC-1 [4] = experiment: Induction of cell cycle arrest in human CFPAC-1 cells assessed as accumulation at S phase at 1000 nM incubated for 24 hrs by flow cytometry (reference value: 24.5 %); format: functional
CFPAC-1 [5] = experiment: Induction of cell cycle arrest in human CFPAC-1 cells assessed as accumulation at G2 phase at 100 nM incubated for 24 hrs by flow cytometry (reference value: 14.5 %); format: functional
[6] = Metabolic stability in mouse liver microsome assessed as intrinsic clearance; format: ADME; conditions: liver microsomes, read-out: CLH
PaTu 8988t [7] = experiment: Antiproliferative activity against human PaTu 8988t cells assessed as inhibition of cell proliferation at 1 uM incubated for 72 hrs by SRB assay relative to control; format: functional
CFPAC-1 [8] = experiment: Induction of cell cycle arrest in human CFPAC-1 cells assessed as accumulation at G1 phase at 100 nM incubated for 24 hrs by flow cytometry (reference value: 58.6 %); format: functional
CFPAC-1 [9] = experiment: Induction of cell cycle arrest in human CFPAC-1 cells assessed as accumulation at G1 phase at 1000 nM incubated for 24 hrs by flow cytometry (reference value: 58.6 %); format: functional
MIA PaCa-2 [10] = experiment: Antiproliferative activity against human MIA PaCa-2 cells assessed as inhibition of cell proliferation incubated for 72 hrs by SRB assay; format: functional, cell-based; conditions: MIA PaCa-2, 72 h
PaTu 8988t [11] = experiment: Antiproliferative activity against human PaTu 8988t cells assessed as inhibition of cell proliferation incubated for 72 hrs by SRB assay; format: functional, cell-based
[12] = Metabolic stability in mouse liver microsome assessed as half life; format: ADME; conditions: liver microsomes
CFPAC-1 [13] = experiment: Induction of cell cycle arrest in human CFPAC-1 cells assessed as accumulation at G2 phase at 1000 nM incubated for 24 hrs by flow cytometry (reference value: 14.5 %); format: functional
CFPAC-1 [14] = experiment: Induction of apoptosis in human CFPAC-1 cells assessed as necrotic cells at 1 uM incubated for 24 hrs by annexin V-FITC/PI staining based flow cytometry (reference value: 0.37 %); format: functional
[15] = Toxicity in C57BL/6 mouse xenografted with […] cells assessed as drug tolerance at 10 mg/kg, ip administered every two days for 20 days; format: organism-based; conditions: in vivo, 480 h, time 20 day
CFPAC-1 [16] = experiment: Induction of apoptosis in human CFPAC-1 cells assessed as early apoptotic cells at 1 uM incubated for 24 hrs by annexin V-FITC/PI staining based flow cytometry (reference value: 3.04 %); format: functional
CFPAC-1 [17] = experiment: Induction of cell cycle arrest in human CFPAC-1 cells assessed as accumulation at G2 phase at 10 nM incubated for 24 hrs by flow cytometry (reference value: 14.5 %); format: functional
[18] = Antiproliferative activity against human L02 cells assessed as inhibition of cell proliferation at 1 uM incubated for 72 hrs by SRB assay relative to control; format: toxicity, cell-based
[19] = Aqueous solubility of the compound at 1 to 2 mg measured after 24 hrs by HPLC-MS analysis; format: physicochemical; conditions: aqueous (not further specified), dose 1-2 mg
CFPAC-1 [20] = experiment: Induction of cell cycle arrest in human CFPAC-1 cells assessed as accumulation at S phase at 100 nM incubated for 24 hrs by flow cytometry (reference value: 24.5 %); format: functional
[21] = Metabolic stability in human liver microsome assessed as intrinsic clearance; format: ADME; conditions: liver microsomes, read-out: CLH
CFPAC-1 [22] = experiment: Inhibition of autophagy at later stage in human CFPAC-1 cells assessed as increase in LC3-II/LC3-I ratio at 1 uM incubated for 24 hrs in presence of chloroquine by Western blot analysis; format: functional, cell-based
CFPAC-1 [23] = experiment: Antiproliferative activity against human CFPAC-1 cells assessed as inhibition of cell proliferation at 1 uM incubated for 72 hrs by SRB assay relative to control; format: functional
CFPAC-1 [24] = experiment: Induction of apoptosis in human CFPAC-1 cells assessed as late apoptotic cells at 1 uM incubated for 24 hrs by annexin V-FITC/PI staining based flow cytometry (reference value: 3.14 %); format: functional
CFPAC-1 [25] = experiment: Effect on beclin-1 level in human CFPAC-1 cells at 10 to 1000 nM incubated for 24 hrs by Western blot analysis; format: functional, cell-based; conditions: dose 10-1000 nM
CFPAC-1 [26] = experiment: Induction of apoptosis in human CFPAC-1 cells assessed as viable cells at 10 uM incubated for 24 hrs by annexin V-FITC/PI staining based flow cytometry (reference value: 93.5 %); format: functional; conditions: read-out: Activity
CFPAC-1 [27] = experiment: Induction of apoptosis in human CFPAC-1 cells assessed as necrotic cells at 10 uM incubated for 24 hrs by annexin V-FITC/PI staining based flow cytometry (reference value: 0.37 %); format: functional
CFPAC-1 [28] = experiment: Induction of cell cycle arrest in human CFPAC-1 cells assessed as accumulation at G1 phase at 10 nM incubated for 24 hrs by flow cytometry (reference value: 58.6 %); format: functional
Panc02 [29] = experiment: Antiproliferative activity against mouse Panc02 cells assessed as inhibition of cell proliferation incubated for 72 hrs by SRB assay; format: functional, cell-based; conditions: Panc02, 72 h
[30] = Metabolic stability in mouse liver microsome assessed as hepatic clearance; format: ADME; conditions: microsomes
CFPAC-1 [31] = experiment: Induction of apoptosis in human CFPAC-1 cells assessed as late apoptotic cells at 10 uM incubated for 24 hrs by annexin V-FITC/PI staining based flow cytometry (reference value: 3.14 %); format: functional
[32] = Toxicity in C57BL/6 mouse xenografted with […] cells assessed as body weight loss at 10 mg/kg, ip administered every two days for 20 days; format: organism-based; conditions: in vivo, 480 h, time 20 day
Panc02 [33] = experiment: Antitumor activity against […] Panc02 cells xenografted in C57BL/6 mouse assessed as tumor growth inhibition at 10 mg/kg, ip administered every two days for 20 days by electronic caliper method relative to control; format: functional; conditions: Panc02, 480 h, time 20 day, read-out: TGI
CFPAC-1 [34] = experiment: Induction of cell cycle arrest in human CFPAC-1 cells assessed as accumulation at S phase at 10 nM incubated for 24 hrs by flow cytometry (reference value: 24.5 %); format: functional
[35] = Metabolic stability in human liver microsome assessed as half life; format: ADME; conditions: liver microsomes
[36] = Metabolic stability in human liver microsome assessed as hepatic clearance; format: ADME; conditions: microsomes
CFPAC-1 [37] = experiment: Antiproliferative activity against human CFPAC-1 cells assessed as inhibition of cell proliferation incubated for 72 hrs by SRB assay; format: functional, cell-based; conditions: CFPAC-1, 72 h
[38] = Antiproliferative activity against human L02 cells assessed as inhibition of cell proliferation incubated for 72 hrs by SRB assay; format: toxicity, cell-based
CFPAC-1 [39] = experiment: Induction of apoptosis in human CFPAC-1 cells assessed as early apoptotic cells at 10 uM incubated for 24 hrs by annexin V-FITC/PI staining based flow cytometry (reference value: 3.04 %); format: functional

**Q.** Which results are given for COc1cc2c(O)c3c(c(-c4ccc5c(c4)OCO5)c2cc1OC)C(=O)OC3 [DIPHYLLIN]?
**A.** viability at 1 µM (CFPAC-1 [1]): 89.9%; inhibition at 1 µM (MIA PaCa-2 [2]): 70.1%; inhibition at 1 µM (Panc02 [3]): 83.3%; Activity (CFPAC-1 [4]): 8.14%; Activity (CFPAC-1 [5]): 10.6%; microsomal CLint [6]: > 277 µL/min/mg; inhibition at 1 µM (PaTu 8988t [7]): 77.5%; Activity (CFPAC-1 [8]): 66.7%; Activity (CFPAC-1 [9]): 81.9%; IC50 (MIA PaCa-2 [10]): 271 nM; IC50 (PaTu 8988t [11]): 102 nM; half-life [12]: < 5 min; Activity (CFPAC-1 [13]): 7.81%; Activity (CFPAC-1 [14]): 0.86%; Activity [15]: Non-Toxic; Activity (CFPAC-1 [16]): 1.99%; Activity (CFPAC-1 [17]): 10.1%; inhibition at 72 h, 1 µM [18]: 17.7%; solubility at 24 h [19]: 0.021 µg/mL (≈ 0.0552 µM); Activity (CFPAC-1 [20]): 20.4%; microsomal CLint [21]: 31.6 µL/min/mg; inhibition (CFPAC-1 [22]): Active; inhibition at 1 µM (CFPAC-1 [23]): 75.4%; Activity (CFPAC-1 [24]): 7.23%; Activity (CFPAC-1 [25]): inactive; viability at 10 µM (CFPAC-1 [26]): 87.8%; Activity (CFPAC-1 [27]): 0.58%; Activity (CFPAC-1 [28]): 58.9%; IC50 (Panc02 [29]): 61 nM; CLH [30]: > 83.2 mL/min/kg; Activity (CFPAC-1 [31]): 9.53%; Activity [32]: Non-Toxic; inhibition in vivo at 10 mg/kg (Panc02 [33]): 22.6%; Activity (CFPAC-1 [34]): 28.7%; half-life [35]: 43.8 min; CLH [36]: 13.2 mL/min/kg; IC50 (CFPAC-1 [37]): 208 nM; IC50 at 72 h [38]: 3320 nM; Activity (CFPAC-1 [39]): 2.1%
